Non-standard residues stand in square brackets, D forms with d. Residues, ends and D or L forms follow the SMILES beside them. *: point of attachment. Phenylacetyl(2,3,4,5,6-F5) = O=C(Cc1c(F)c(F)c(F)c(F)c1F)*; Phe(F5) = N[C@@H](Cc1c(F)c(F)c(F)c(F)c1F)C(=O)O; hArg = N=C(N)NCCCC[C@H](N)C(=O)O; 12Ado = NCCCCCCCCCCCC(=O)O; Nle = CCCC[C@H](N)C(=O)O; Orn = NCCC[C@H](N)C(=O)O; Abu = CC[C@H](N)C(=O)O; PhAc = O=C(Cc1ccccc1)*
Experiments:
[1] = tested on: HCC1806 breast cancer cells; experiment: In vitro cell viability, HCC1806; format: cell-based, human; conditions: for In vitro relative inhibitory potency in comparison to MIA-602, HCC-1806: Table 3B, 5 μM for 72 H, MIA-602 = 1
Outline: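 Cells grown to ~60% confluence, serum-starved 24 h in 0.5% FBS medium, then exposed to compounds at 5 μM (some at 2 μM) or 0.1% DMSO vehicle for 72 h, in quintuplicate, medium changed every 48 h. Viability read by MTS-type CellTiter 96 AQueous assay; values are inhibitory potency relative to MIA602.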

[2] = tested on: SK-OV-3 ovarian cancer cells; experiment: In vitro cell viability, SK-OV-3; format: cell-based, human; conditions: Table 3B; * at 2 μM for 72 H; MIA-602 = 1
Experimental: (§1) The inhibitory effects of the various synthesized GHRH antagonists were tested in cell proliferation assays in various human cancer cell lines including stomach cancer (KATOIII, N87), colon cancer (HT-29), urothelial cancer (J82, RT4), pancreatic cancer (PANC-1, CFPAC-1), prostatic cancer (PC3), breast cancer (MX-1, HCC1806), ovarian cancer (SK-OV-3, OVCAR-3) and lung cancer (HCC827, H460).
(§2) Cell culture. Human cancer cell lines including pancreatic (PANC-1 and CFPAC-1), lung (HCC827 and H460), stomach (NCI-N87 and KATOIII), urothelial (J82, RT4), prostatic (PC3), breast (MX-1 and HCC 1806), colorectal (HT-29), and ovarian (SK-OV-3 and OVCAR-3) were obtained from the American Type Culture Collection (ATCC) and cultured at 37° C. in a humidified 95% air/5% CO2 atmosphere in the medium recommended by ATCC.
(§3) In vitro cell viability. Cell viability was analyzed as follows: cancer cells including pancreatic (PANC-1 and CFPAC-1), lung (HCC827 and H460), stomach (NCI-N87 and KATOIII), urothelial (J82, RT4), prostatic (PC3) and breast (MX-1 and HCC 1806), colorectal (HT-29) and ovarian (SK-OV-3 and OVCAR-3) were grown on 96 well plates to ˜60% confluence, the cells were starved for 24 h in culture medium containing 0.5% FBS. Cells were then treated with GHRH antagonists MIA602 AVR compounds at concentrations of 1, 2.5 or 5 μM, or vehicle (0.1% DMSO) in quintuplicates for 72 hours. The medium was replaced every 48 hours. Cell viability was measured using CellTiter 96 aqueous one solution kit (Promega). Inhibitory effects of tested AVR compounds in comparison to that of MIA602 are presented as inhibitory potency.
(§4) Inhibitory effects of selected AVR compounds in comparison to that of MIA602 are presented as inhibitory potency (e.g., percentage of inhibition). […] The cell lines tested including lung cancer HCC827 (FIG. 2A), pancreatic cancer CFPAC-1 (FIG. 2B), stomach cancer N87 (FIG. 2C), colon cancer HT-29 (FIG. 2D), breast cancers MX-1 and HCC1806 (FIGS. 2 E, F). […]

[3] = tested on: OVCAR-3 ovarian cancer cells; experiment: In vitro cell viability, OVCAR-3; format: cell-based, human; conditions: Table 3B; * at 2 μM for 72 H; MIA-602 = 1
Experimental: as §1, §2, §3, §4

[4] = tested on: pancreatic cancer PANC-1 xenograft; experiment: Xenograft tumor growth in nude mice, PANC-1; format: in vivo; conditions: Table 4A, Pancreatic Ca PANC-1, 7 weeks; for % Inhibition: vs control
Experimental: (§5) The peptides' activity was compared with GHRH antagonist MIA-602. All statistical analyzses were performed from comparing GHRA antagonists to non-treated tumor (control).
(§6) Peptides and chemicals. GHRH antagonists MIA-602 and AVR-GHRH antagonists (see Table 2 above) were synthesized by solid phase methods and purified by HPLC. The peptides were dissolved in DMSO and further diluted in 10% 1,2-propanediol. The final concentration of peptides was 50 µg/ml in 10% 1,2-propanediol containing 0.1% of DMSO.
as §2, with “(NCI-N87), prostate” for “(NCI-N87 and KATOIII), urothelial (J82, RT4), prostatic”, “brest” for “breast”, “HCC-1806),” for “HCC 1806),”
(§7) Xenograft models of human cancers in nude mice. Female athymic (NCr nu/nu) nude mice, 5- to 6-weeks-old, obtained from the Envigo labs (Tampa, Fla.), were housed in laminar airflow cabinets under pathogen-free conditions with a 12-h light/12-h dark schedule, and were fed autoclaved standard chow and water. To generate mice with xenografted tumors, tumor xenografts were initiated by subcutaneous (s.c.) injection of 107 human cancer cells into female nude mice. After about 4 weeks the resulting tumors were dissected and collected after removing necrosis tissues. The tumors were then cut into particles with size of 3 mm3 and transplanted s.c. by trocar needle into experimental animals. When tumors grew to the size of 50-60 mm3 (by volume), mice were randomized into groups and treated daily for 4-8 weeks by subcutaneous administration of 5 μg of GHRH antagonists MIA-602 or AVR-compounds (2-10 μg as indicated), or vehicle solutions (0.1% DMSO in 10% 1,2-propanediol) respectively. Tumor sizes were measured weekly.
(§8) Statistical analysis. One-way ANOVA followed by Bonferroni comparison were performed. Data are expressed as Mean±SEM. To determine statistical significance between animal groups, two-tailed Student's t-test was conducted. Differences were considered significant when p<0.05.
(§9) Results. […] FIG. 1A-N represents in vivo inhibition of tumor growth during the treatment with GHRH antagonist MIA-602 and selected AVR antagonists in nude mice xenografted with various human tumors including pancreatic cancer PANC-1 (FIG. 1A) and CFPAC-1 (FIG. 1I); lung cancer HCC827 (FIGS. 1B, C) and H460 (FIG. 1H); stomach cancer N87 (FIGS. 1D-F); colon cancer HT-29 (FIG. 1G); breast cancer MX-1 and HCC-1806 (FIGS. 1J, K); ovarian cancer SK-OV-3 and OVACAR-3 (FIGS. 1 L, M) and prostate cancer PC3 (FIG. 1N). See also Table 5.

[5] = tested on: breast cancer HCC-1806 xenograft; experiment: Xenograft tumor growth in nude mice, HCC-1806; format: in vivo; conditions: Table 4K, Breast Ca HCC-1806, 5 weeks, 5 μg/day s.c.; for % Inhibition: vs control
Experimental: as §5, §6
as §2, with “(NCI-N87), prostate” for “(NCI-N87 and KATOIII), urothelial (J82, RT4), prostatic”, “brest” for “breast”, “HCC-1806),” for “HCC 1806),”
as §7, §8, §9

[6] = tested on: ovarian cancer OVCAR-3 xenograft; experiment: Xenograft tumor growth in nude mice, OVCAR-3; format: in vivo; conditions: Table 4M, Ovarian Ca OVCAR-3, 9 weeks; for % Inhibition: vs control
Experimental: as §5, §6
as §2, with “(NCI-N87), prostate” for “(NCI-N87 and KATOIII), urothelial (J82, RT4), prostatic”, “brest” for “breast”, “HCC-1806),” for “HCC 1806),”
as §7, §8, §9

[7] = tested on: prostate cancer PC3 xenograft; experiment: Xenograft tumor growth in nude mice, PC3; format: in vivo; conditions: Table 4N, Prostate Ca PC3, 8 weeks, 5 μg/day s.c.; for % Inhibition: vs control
Experimental: as §5, §6
as §2, with “(NCI-N87), prostate” for “(NCI-N87 and KATOIII), urothelial (J82, RT4), prostatic”, “brest” for “breast”, “HCC-1806),” for “HCC 1806),”
as §7, §8, §9

Row | SMILES | In vitro relative inhibitory potency in comparison to MIA-602, HCC-1806 [1] | In vitro relative inhibitory potency in comparison to MIA-602, SKOV-3 [2] | In vitro relative inhibitory potency in comparison to MIA-602, OVCAR-3 [3] | Tumor Growth % ([4]; 2.5 μg/day s.c.) | % Inhibition ([4]; 2.5 μg/day s.c.) | Tumor Growth % ([4]; 5 μg/day s.c.) | % Inhibition ([4]; 5 μg/day s.c.) | Tumor Growth % [5] | % Inhibition [5] | Tumor Size (mm3) ([6]; 2.5 μg/day s.c.) | % Inhibition ([6]; 2.5 μg/day s.c.) | Tumor Size (mm3) ([6]; 5 μg/day s.c.) | % Inhibition ([6]; 5 μg/day s.c.) | Tumor Size (mm3) [7] | % Inhibition [7] | relative inhibitory potency in comparison to MIA-602, Breast IICC1806 ([1]; antagonist 5 μM for 72 h, cell proliferation assay, MIA602 = 1)
1 | CCCC[C@H](NC(=O)[C@@H](NC(=O)[C@H](CC(=O)O)NC(=O)[C@H](CCC(N)=O)NC(=O)[C@H](CC(C)C)NC(=O)[C@H](CC(C)C)NC(=O)[C@H](CCCCN)NC(=O)[C@H](CCCNC(=N)N)NC(=O)[C@H](C)NC(=O)[C@H](CO)NC(=O)[C@H](CC(C)C)NC(=O)[C@H](CCC(N)=O)NC(=O)[C@H](CC)NC(=O)[C@H](CC(C)C)NC(=O)[C@@H](NC(=O)[C@H](CCCCN)NC(=O)[C@H](CCCNC(=N)N)NC(=O)[C@H](Cc1ccc(OC)cc1)NC(=O)[C@H](CCCCNC(=N)N)NC(=O)[C@H](C)NC(=O)[C@@H](NC(=O)[C@H](Cc1c(F)c(F)c(F)c(F)c1F)NC(=O)[C@@H](NC(=O)[C@H](C)NC(=O)[C@H](CC(=O)O)NC(=O)[C@@H](CCCNC(=N)N)NC(=O)[C@H](Cc1ccc(O)cc1)NC(=O)CCCCCCCCCCCNC(=O)Cc1c(F)c(F)c(F)c(F)c1F)[C@@H](C)CC)[C@@H](C)O)C(C)C)[C@@H](C)CC)C(=O)N[C@H](CCCNC(=N)N)C(=O)N[C@@H](CCCCNC(=N)N)C(=O)NCCCCCCCCCCCC(N)=O [AVR-352, 5FPhAC-Ada-Tyr-DArg-Asp-Ala-Ile-5FPhe-Thr-Ala-Har-Tyr(Me)-Arg-Lys-Val-Leu-Abu-Gln-Leu-Ser-Ala-Arg-Lys-Leu-Leu-Gln-Asp-Ile-Nle-DArg-Har-Ada-NH2] ({Phenylacetyl(2,3,4,5,6-F5)-12Ado}-Y[dR]DAI[Phe(F5)]TA[hArg]Y(Me)RKVL[Abu]QLSARKLLQDI[Nle][dR][hArg][12Ado]-NH2) | 4.85 | 1.15* | 1.68* | 2073.0% | 22.4% | 1456.9% | 45.4% | 522.7% | 56.2% | 307.7 mm3 | 35.9% | 199.9 mm3 | 58.4% | 413.3 mm3 | 50.0% | –
2 | CCCC[C@H](NC(=O)[C@@H](NC(=O)[C@H](CC(=O)O)NC(=O)[C@H](CCC(N)=O)NC(=O)[C@H](CC(C)C)NC(=O)[C@H](CC(C)C)NC(=O)[C@H](CCCN)NC(=O)[C@H](Cc1c[nH]cn1)NC(=O)[C@H](C)NC(=O)[C@H](CO)NC(=O)[C@H](CC(C)C)NC(=O)[C@H](CCC(N)=O)NC(=O)[C@H](CC)NC(=O)[C@H](CC(C)C)NC(=O)[C@@H](NC(=O)[C@H](CCCN)NC(=O)[C@H](Cc1c[nH]cn1)NC(=O)[C@H](Cc1ccc(OC)cc1)NC(=O)[C@H](CCCCNC(=N)N)NC(=O)[C@H](C)NC(=O)[C@@H](NC(=O)[C@H](Cc1c(F)c(F)c(F)c(F)c1F)NC(=O)[C@@H](NC(=O)[C@H](C)NC(=O)[C@H](CC(=O)O)NC(=O)[C@@H](CCCNC(=N)N)NC(=O)[C@H](Cc1ccc(O)cc1)NC(=O)CCCCCCCCCCCNC(=O)Cc1ccccc1)[C@@H](C)CC)[C@@H](C)O)C(C)C)[C@@H](C)CC)C(=O)N[C@H](CCCNC(=N)N)C(=O)N[C@@H](CCCCNC(=N)N)C(N)=O [MIA-602, PhAC-Ada, Tyr D-Arg, Asp, Ala, Ile, 5FPhe, Thr, Ala, Har, Tyr(Me), His, Orn, Val, Leu, Abu, Gin, Leu, Ser, Ala, His, Om, Leu, Leu, Gin, Asp, Ile; Nle, D-Arg, Har NH2, reference compound] ({PhAc-12Ado}-Y[dR]DAI[Phe(F5)]TA[hArg]Y(Me)H[Orn]VL[Abu]QLSAH[Orn]LLQDI[Nle][dR][hArg]-NH2) | 1 | 1 | 1 | – | – | 1572.7% | 41.1% | 529.4% | 55.7% | – | – | 267.2 mm3 | 44.4% | 450.9 mm3 | 45.5% | 1
